Reference: patent US20240174674A1, “NITROGEN-CONTAINING POLYCYCLIC FUSED RING COMPOUND, PHARMACEUTICAL COMPOSITION THEREOF, PREPARATION METHOD THEREFOR, AND USE THEREOF” (APPLIED PHARMACEUTICAL SCIENCE, INC., priority 2021, published 2024)

Target: RET G810R (Homo sapiens (Human), UniProt P07949, G810R)
Experiment: HTRF KinEASE-TK kinase activity test, RET G810R
Settings: for inhibitory activity against RET G810R relative to that of selpercatinib (LOXO-292): fold versus selpercatinib (LOXO-292); for IC50: read-out: RET G810R IC50, HTRF kinase assay

Chain of RET G810R (P07949 29-1114 G810R): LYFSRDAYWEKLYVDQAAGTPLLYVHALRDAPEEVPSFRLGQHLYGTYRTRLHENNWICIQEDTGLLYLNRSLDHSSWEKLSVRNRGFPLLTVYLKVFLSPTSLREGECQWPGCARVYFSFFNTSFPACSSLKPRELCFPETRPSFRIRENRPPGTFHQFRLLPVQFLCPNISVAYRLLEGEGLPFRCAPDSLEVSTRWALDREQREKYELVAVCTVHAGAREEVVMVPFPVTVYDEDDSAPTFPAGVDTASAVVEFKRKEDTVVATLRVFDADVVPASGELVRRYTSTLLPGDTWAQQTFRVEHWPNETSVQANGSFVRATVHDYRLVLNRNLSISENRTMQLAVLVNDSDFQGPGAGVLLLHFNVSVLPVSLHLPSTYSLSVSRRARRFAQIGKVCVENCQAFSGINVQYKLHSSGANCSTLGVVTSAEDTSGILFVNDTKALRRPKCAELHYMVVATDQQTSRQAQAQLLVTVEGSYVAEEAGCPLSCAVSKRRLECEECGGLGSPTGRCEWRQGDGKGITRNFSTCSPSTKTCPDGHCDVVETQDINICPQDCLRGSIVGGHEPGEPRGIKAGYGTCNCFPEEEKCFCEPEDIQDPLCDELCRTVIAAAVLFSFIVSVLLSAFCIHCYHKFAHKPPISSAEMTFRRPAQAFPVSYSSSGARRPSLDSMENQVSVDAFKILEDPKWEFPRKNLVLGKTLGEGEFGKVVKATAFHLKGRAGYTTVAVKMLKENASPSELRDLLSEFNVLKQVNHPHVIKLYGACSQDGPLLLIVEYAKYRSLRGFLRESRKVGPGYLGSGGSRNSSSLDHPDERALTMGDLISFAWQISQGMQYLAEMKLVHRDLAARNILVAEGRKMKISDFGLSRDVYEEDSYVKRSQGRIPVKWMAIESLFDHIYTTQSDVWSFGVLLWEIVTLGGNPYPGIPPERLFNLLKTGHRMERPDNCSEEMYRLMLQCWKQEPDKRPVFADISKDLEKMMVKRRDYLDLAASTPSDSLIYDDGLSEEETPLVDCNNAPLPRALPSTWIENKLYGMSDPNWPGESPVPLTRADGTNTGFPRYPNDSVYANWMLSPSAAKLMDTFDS

| Compound | inhibitory activity against RET G810R relative to that of selpercatinib (LOXO-292) [times] | IC50 [nM] |
| --- | --- | --- |
| O=C(N[C@H]1CCN(c2ccc(-c3cc(OCC(F)F)cn4nc5[nH]ncc5c34)cn2)C[C@H]1O)c1c(F)cccc1F [Compound 268, N-((3R,4S)-1-(5-(6-(2,2-difluoroethoxy)-1H-pyrazolo[3′,4′:3,4]pyrazolo[1,5-α]pyridin-4-yl)pyridin-2-yl)-3-hydroxypiperidin-4-yl)-2,6-difluorobenzamide] | ≥ 10 | 2.8 |
| CCOc1cc(-c2ccc(N3CC[C@H](NS(=O)(=O)c4c(F)cccc4F)[C@H](O)C3)nc2)c2c3cn[nH]c3nn2c1 [Compound 269, N-((3R,4S)-1-(5-(6-ethoxy-1H-pyrazolo[3′,4′:3,4]pyrazolo[1,5-α]pyridin-4-yl)pyridin-2-yl)-3-hydroxypiperidin-4-yl)-2,6-difluorobenzenesulfonamide] | ≥ 10 | 6.2 |
| CCOc1cc(-c2ccc(N3CC[C@H](NC(=O)c4cc(F)ccc4F)[C@H](O)C3)nc2)c2c3cn[nH]c3nn2c1 [Compound 273, N-((3R,4S)-1-(5-(6-ethoxy-1H-pyrazolo[3′,4′:3,4]pyrazolo[1,5-α]pyridin-4-yl)pyridin-2-yl)-3-hydroxypiperidin-4-yl)-2,5-difluorobenzamide] | ≥ 10 | 1.8 |
| CCOc1cc(-c2ccc(N3CC[C@H](NC(=O)c4c(F)ccc(F)c4F)[C@H](O)C3)nc2)c2c3cn[nH]c3nn2c1 [Compound 274, N-((3R,4S)-1-(5-(6-ethoxy-1H-pyrazolo[3′,4′:3,4]pyrazolo[1,5-α]pyridin-4-yl)pyridin-2-yl)-3-hydroxypiperidin-4-yl)-2,3,6-trifluorobenzamide] | ≥ 10 | 1.3 |
| CCOc1cc(-c2ccc(N3CC[C@H](NC(=O)c4c(F)cccc4Cl)[C@H](O)C3)nc2)c2c3cn[nH]c3nn2c1 [Compound 275, N-((3R,4S)-1-(5-(6-ethoxy-1H-pyrazolo[3′,4′:3,4]pyrazolo[1,5-α]pyridin-4-yl)pyridin-2-yl)-3-hydroxypiperidin-4-yl)-2-chloro-6-fluorobenzamide] | ≥ 10 | 0.8 |
| CCOc1cc(-c2ccc(N3CC[C@H](NC(=O)c4cc(F)ccc4Cl)[C@H](O)C3)nc2)c2c3cn[nH]c3nn2c1 [Compound 276, 2-chloro-N-((3R,4S)-1-(5-(6-ethoxy-1H-pyrazolo[3′,4′:3,4]pyrazolo[1,5-α]pyridin-4-yl)pyridin-2-yl)-3-hydroxypiperidin-4-yl)-5-fluorobenzamide] | ≥ 10 | 0.7 |
| CCOc1cc(-c2ccc(N3CC[C@H](NC(=O)c4cc(F)ccc4C)[C@H](O)C3)nc2)c2c3cn[nH]c3nn2c1 [Compound 277, N-((3R,4S)-1-(5-(6-ethoxy-1H-pyrazolo[3′,4′:3,4]pyrazolo[1,5-α]pyridin-4-yl)pyridin-2-yl)-3-hydroxypiperidin-4-yl)-5-fluoro-2-methylbenzamide] | ≥ 10 | 1.2 |
| CCOc1cc(-c2ccc(N3CC[C@H](NC(=O)c4c(C)cccc4Cl)[C@H](O)C3)nc2)c2c3cn[nH]c3nn2c1 [Compound 278, 2-chloro-N-((3R,4S)-1-(5-(6-ethoxy-1H-pyrazolo[3′,4′:3,4]pyrazolo[1,5-α]pyridin-4-yl)pyridin-2-yl)-3-hydroxypiperidin-4-yl)-6-methylbenzamide] | ≥ 10 | 0.9 |
| CCOc1cc(-c2ccc(N3CC[C@H](NC(=O)c4ccccc4C(F)(F)F)[C@H](O)C3)nc2)c2c3cn[nH]c3nn2c1 [Compound 279, N-((3R,4S)-1-(5-(6-ethoxy-1H-pyrazolo[3′,4′:3,4]pyrazolo[1,5-α]pyridin-4-yl)pyridin-2-yl)-3-hydroxypiperidin-4-yl)-2-(trifluoromethyl)benzamide] | ≥ 10 | 2.2 |
| CCOc1cc(-c2ccc(N3CC[C@H](NC(=O)c4ccccc4C#N)[C@H](O)C3)nc2)c2c3cn[nH]c3nn2c1 [Compound 280, 2-cyano-N-((3R,4S)-1-(5-(6-ethoxy-1H-pyrazolo[3′,4′:3,4]pyrazolo[1,5-α]pyridin-4-yl)pyridin-2-yl)-3-hydroxypiperidin-4-yl)benzamide] | ≥ 10 | 2.1 |
| CCOc1cc(-c2ccc(N3CC[C@H](NC(=O)C4(C(F)(F)F)CCC4)[C@H](O)C3)nc2)c2c3cn[nH]c3nn2c1 [Compound 281, N-((3R,4S)-1-(5-(6-ethoxy-1H-pyrazolo[3′,4′:3,4]pyrazolo[1,5-α]pyridin-4-yl)pyridin-2-yl)-3-hydroxypiperidin-4-yl)-1-(trifluoromethyl)cyclobutane-1-carboxamide] | ≥ 10 | 1.5 |
| CCOc1cc(-c2ccc(N3CC[C@H](NC(=O)C4(F)CC4)[C@H](O)C3)nc2)c2c3cn[nH]c3nn2c1 [Compound 282, N-((3R,4S)-1-(5-(6-ethoxy-1H-pyrazolo[3′,4′:3,4]pyrazolo[1,5-α]pyridin-4-yl)pyridin-2-yl)-3-hydroxypiperidin-4-yl)-1-fluorocyclopropane-1-carboxamide] | ≥ 10 | 3.5 |
| CCOc1cc(-c2ccc(N3CC[C@H](NC(=O)C(C)C(C)C)[C@H](O)C3)nc2)c2c3cn[nH]c3nn2c1 (stereo partly drawn) [Compound 283, N-((3R,4S)-1-(5-(6-ethoxy-1H-pyrazolo[3′,4′:3,4]pyrazolo[1,5-α]pyridin-4-yl)pyridin-2-yl)-3-hydroxypiperidin-4-yl)-2,3-dimethylbutanamide] |  | 9.9 |
| CCOc1cc(-c2ccc(N3CC[C@H](NC(=O)c4ncccc4C(F)(F)F)[C@H](O)C3)nc2)c2c3cn[nH]c3nn2c1 [Compound 284, N-((3R,4S)-1-(5-(6-ethoxy-1H-pyrazolo[3′,4′:3,4]pyrazolo[1,5-α]pyridin-4-yl)pyridin-2-yl)-3-hydroxypiperidin-4-yl)-3-(trifluoromethyl)picolinamide] |  | 4.2 |
| CCOc1cc(-c2ccc(N3CC[C@H](NC(=O)c4ncccc4F)[C@H](O)C3)nc2)c2c3cn[nH]c3nn2c1 [Compound 286, N-((3R,4S)-1-(5-(6-ethoxy-1H-pyrazolo[3′,4′:3,4]pyrazolo[1,5-α]pyridin-4-yl)pyridin-2-yl)piperidin-3-hydroxypiperidin-4-yl)-3-fluoropicolinamide] |  | 10.3 |
| CCOc1cc(-c2ccc(N3CCC(CO)(NC(=O)c4cc(F)ccc4F)CC3)nc2)c2c3cn[nH]c3nn2c1 [Compound 291, N-(1-(5-(6-ethoxy-1H-pyrazolo[3′,4′:3,4]pyrazolo[1,5-α]pyridin-4-yl)pyridin-2-yl)-4-(hydroxymethyl)piperidin-4-yl)-2,5-difluorobenzamide] | ≥ 10 | 1.6 |
| O=C(N[C@H]1CCN(c2ccc(-c3cc(OCC(F)F)cn4nc5[nH]ncc5c34)cn2)C[C@H]1O)c1c(F)cccc1Cl [Compound 292, N-((3R,4S)-1-(5-(6-(2,2-difluoroethoxy)-1H-pyrazolo[3′,4′:3,4]pyrazolo[1,5-α]pyridin-4-yl)pyridin-2-yl)piperidin-3-hydroxypiperidin-4-yl)-2-chloro-6-fluorobenzamide] | ≥ 10 | 1.8 |
